From patent US7825114B2, “Substituted aminopyrazolopyridines and salts thereof, pharmaceutical compositions comprising same, methods of preparing same and uses of same” (Bayer Schering Pharma AG, priority 2006, dated 2010)

Key:
Tie2 [1] = biological target: T1, Tie2 (Homo sapiens, UniProt Q02763); assay: Tie-2-Kinase HTRF-Assay without kinase preactivation (assay 2); format: biochemical; set-up: A recombinant fusion protein of GST and the intracellular domains of Tie-2; GST; made in house; host or cells: insect cells (Hi-5); conditions: GST-Tie-2 intracellular domains, no preactivation, 10 μM ATP
Source text: Assay 2: Tie-2-Kinase HTRF-Assay without Kinase Preactivation
Tie2-inhibitory activity of compounds of the present invention was quantified employing two Tie2 HTRF assay as described in the following paragraphs.
A recombinant fusion protein of GST and the intracellular domains of Tie-2, expressed in insect cells (Hi-5) and purified by Glutathion-Sepharose affinity chromatography was used as kinase. Alternatively, commercially available GST-Tie2-fusion protein (Upstate Biotechnology, Dundee, Scotland) can be used As substrate for the kinase reaction the biotinylated peptide biotin-Ahx-[…] (C-terminus in amid form) was used which can be purchased e.g. from the company Biosynthan GmbH (Berlin-Buch, Germany). Detection of phosphorylated product is achieved specifically by a trimeric detection complex consisting of the phosphorylated substrate, streptavidin-XLent (SA-XLent) which binds to biotin, and Europium Cryptate-labeled anti-phosphotyrosine antibody PT66 which binds to phosphorylated tyrosine.
The reaction was stopped by the addition of 5 μl of an aqueous buffer (25 mM Hepes/NaOH pH 7.5, 0.28% (w/v) bovine serum albumin) containing EDTA (90 mM) and the HTRF (Homogeneous Time Resolved Fluorescence) detection reagents streptavidine-XLent (0.2 μM, from Cis Biointernational, Marcoule, France) and PT66-Eu-Chelate (0.3 ng/μl; a europium-chelate labelled anti-phospho-tyrosine antibody from Perkin Elmer).
(§1) The resulting mixture was incubated 1 h at 22° C. to allow the binding of the biotinylated phosphorylated peptide to the streptavidine-XLent and the PT66-Eu-Chelate. Subsequently the amount of phosphorylated substrate peptide was evaluated by measurement of the resonance energy transfer from the PT66-Eu-Chelate to the streptavidine-XLent. Therefore, the fluorescence emissions at 620 nm and 665 nm after excitation at 350 nm was measured in a HTRF reader, e.g. a Rubystar (BMG Labtechnologies, Offenburg, Germany) or a Viewlux (Perkin-Elmer). The ratio of the emissions at 665 nm and at […] was taken as the measure for the amount of phosphorylated substrate peptide.
Target sequence in this assay (Q02763 770-1124 limits assumed): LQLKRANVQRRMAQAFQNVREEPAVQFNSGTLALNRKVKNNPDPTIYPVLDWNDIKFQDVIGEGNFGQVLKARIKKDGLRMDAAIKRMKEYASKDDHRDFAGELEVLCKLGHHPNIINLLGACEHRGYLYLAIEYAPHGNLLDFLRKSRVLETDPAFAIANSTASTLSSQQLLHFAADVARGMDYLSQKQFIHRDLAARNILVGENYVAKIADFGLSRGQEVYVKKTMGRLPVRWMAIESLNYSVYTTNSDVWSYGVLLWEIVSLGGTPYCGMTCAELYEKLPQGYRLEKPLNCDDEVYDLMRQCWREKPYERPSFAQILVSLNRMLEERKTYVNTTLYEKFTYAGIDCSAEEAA

human c-kit = biological target: T2, human c-kit (Homo sapiens, UniProt P10721); assay: cKIT-Kinase HTRF-Assay (assay 4); format: biochemical; conditions: for IC50: GST-tagged kinase domain of human c-kit, 10 μM ATP; for Selectivity vs. cKit: IC50 assay 4/IC50 assay 2
T2 construct: GST-tagged recombinant kinase domain of the human c-kit; GST; host or cells: SF-9 insect cells
Protocol: Assay 4: cKIT-Kinase HTRF-Assay
c-Kit-inhibitory activity of compounds of the present invention was quantified employing the c-kit HTRF assay as described in the following paragraphs. GST-tagged recombinant kinase domain of the human c-kit expressed in SF-9 cells was used as kinase. As substrate for the kinase reaction biotinylated poly-(Glu,Tyr) (Cis biointernational, France) was used.
c-Kit was incubated for 30 min at 22° C. in the presence of different concentrations of test compounds in 5 μl assay buffer [50 mM Hepes/NaOH pH 7.0, 1 mM MgCl2, 5 mM MnCl2, 1.0 mM dithiothreitol, 0.1 mM sodium ortho-vanadate, 10 μM adenosine-tri-phosphate (ATP), 1.3 μg/ml substrate, 0.001% (v/v) Nonidet-P40 (Sigma), 1% (v/v) dimethylsulfoxide]. The concentration of c-kit was adjusted depending of the activity of the enzyme lot and was chosen appropriate to have the assay in the linear range. The reaction was stopped by the addition of 5 μl of a solution of HTRF detection reagents (0.1 μM streptavidine-XLent and 1 nM PT66-Eu-Chelate, an europium-chelate labelled anti-phospho-tyrosine antibody from Perkin Elmer) in an aqueous EDTA-solution (80 mM EDTA, 0.2% (w/v) bovine serum albumin in 50 mM HEPES/NaOH pH 7.0).
as §1, with “substrate” for “substrate peptide”, “substrate.” for “substrate peptide.”

Tie2 [2] = biological target: T1, Tie2; assay: Tie2 ELISA assay (assay 1): cellular Tie2 autophosphorylation; format: cell-based; set-up: expressed in transfected cells; host or cells: CHO (DHFR-deficient), stably transfected; conditions: CHO cells stably transfected with Tie2, stimulated by angiopoietin-2; Tie2 autophosphorylation by sandwich-ELISA; read-out: Tie 2 activity (assay 1)
Protocol: Assay 1: Tie2 ELISA Assay
Cellular activity of compounds of the present invention as inhibitors of Tie2 kinase activity was measured employing a Tie2 ELISA assay as described in the following paragraphs. Herein CHO cell-cultures, which are stably transfected by known techniques with Tie2 using DHFR deficiency as selection marker, are stimulated by angiopoietin-2. The specific autophosphorylation of Tie2 receptors is quantified with a sandwich-ELISA using anti-Tie2 antibodies for catch and anti-phosphotyrosine antibodies coupled to HRP for detection. […]
Target sequence in this assay (Q02763 23-1124): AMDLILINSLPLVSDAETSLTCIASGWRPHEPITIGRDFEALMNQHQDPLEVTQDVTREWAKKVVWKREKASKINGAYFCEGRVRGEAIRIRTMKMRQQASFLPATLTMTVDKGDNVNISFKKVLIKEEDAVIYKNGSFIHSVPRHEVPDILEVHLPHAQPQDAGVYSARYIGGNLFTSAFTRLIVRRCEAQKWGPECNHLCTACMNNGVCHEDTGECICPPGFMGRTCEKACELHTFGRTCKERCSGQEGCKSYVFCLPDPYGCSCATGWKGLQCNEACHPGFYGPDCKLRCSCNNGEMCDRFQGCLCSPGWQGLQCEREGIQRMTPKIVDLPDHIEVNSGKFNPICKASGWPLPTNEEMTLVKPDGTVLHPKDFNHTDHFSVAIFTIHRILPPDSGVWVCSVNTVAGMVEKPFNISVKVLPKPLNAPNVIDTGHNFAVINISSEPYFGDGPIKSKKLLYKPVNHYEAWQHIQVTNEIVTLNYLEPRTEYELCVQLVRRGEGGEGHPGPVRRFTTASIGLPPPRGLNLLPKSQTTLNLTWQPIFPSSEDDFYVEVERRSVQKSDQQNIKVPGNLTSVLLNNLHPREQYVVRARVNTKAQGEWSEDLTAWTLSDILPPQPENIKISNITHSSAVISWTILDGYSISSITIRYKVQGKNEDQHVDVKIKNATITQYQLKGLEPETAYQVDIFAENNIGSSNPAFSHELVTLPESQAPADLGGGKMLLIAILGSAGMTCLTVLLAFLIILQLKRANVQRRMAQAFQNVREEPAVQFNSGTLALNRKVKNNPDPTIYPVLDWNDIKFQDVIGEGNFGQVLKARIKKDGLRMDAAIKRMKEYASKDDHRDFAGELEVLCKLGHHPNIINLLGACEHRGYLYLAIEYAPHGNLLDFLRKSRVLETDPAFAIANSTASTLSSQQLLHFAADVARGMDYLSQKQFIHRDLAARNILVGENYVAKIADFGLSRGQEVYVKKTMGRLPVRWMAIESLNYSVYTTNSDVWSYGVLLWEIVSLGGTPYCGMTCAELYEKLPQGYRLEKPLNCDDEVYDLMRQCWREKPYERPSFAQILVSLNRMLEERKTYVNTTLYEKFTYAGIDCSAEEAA

T2 sequence (P10721 589-937 limits assumed): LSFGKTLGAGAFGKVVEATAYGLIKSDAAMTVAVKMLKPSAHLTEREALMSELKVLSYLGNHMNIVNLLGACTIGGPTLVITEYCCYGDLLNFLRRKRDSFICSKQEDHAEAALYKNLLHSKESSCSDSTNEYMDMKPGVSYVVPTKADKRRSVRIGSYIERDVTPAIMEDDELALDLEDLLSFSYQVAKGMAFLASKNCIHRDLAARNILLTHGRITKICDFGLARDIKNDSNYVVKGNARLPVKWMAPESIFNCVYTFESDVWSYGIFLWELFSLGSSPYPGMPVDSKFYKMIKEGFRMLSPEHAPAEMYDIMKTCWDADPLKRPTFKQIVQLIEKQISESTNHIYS

Row | Structure (SMILES) | IC50 (Tie2 [1]) [nM] | IC50 (human c-kit) [nM] | Selectivity vs. cKit (human c-kit) | IC50 (Tie2 [2]) [nM]
1 | CCOC(=O)C1(c2cc(-c3ccc(NC(=O)Nc4ccccc4)cc3)c3c(N)nn(C)c3n2)CC1 [Example 1.1, 1-{3-Amino-1-methyl-4-[4-(3-phenyl-ureido)-phenyl]-1H-pyra-zolo[3,4-b]pyridin-6-yl}-cyclopropanecarboxylic acid ethyl ester] | 100 to 1000 | 1000 to 10000 | 4 | 100 to 1000
2 | CCOC(=O)C1(c2cc(-c3ccc(NC(=O)Nc4cccc(C(F)(F)F)c4)cc3)c3c(N)nn(C)c3n2)CC1 [Example 1.2, 1-(3-Amino-1-methyl-4-{4-[3-(3-trifluoromethyl-phenyl)-ureido]-phenyl}-1H-pyrazolo[3,4-b]pyridin-6-yl)-cyclopropanecarboxylic acid ethyl ester] | ≤ 100 | 1000 to 10000 | >30 | ≤ 100
3 | CNC(=O)C1(c2cc(-c3ccc(NC(=O)Nc4cccc(C(F)(F)F)c4)cc3)c3c(N)nn(C)c3n2)CC1 [Example 1.4, 1-(3-Amino-1-methyl-4-{4-[3-(3-trifluoromethyl-phenyl)-ureido]-phenyl}-1H-pyrazolo[3,4-b]pyridin-6-yl)-cyclopropanecarboxylic acid methylamide] | ≤ 100 | 100 to 1000 | 9 | 100 to 1000
4 | Cn1nc(N)c2c(-c3ccc(NC(=O)Nc4cccc(C(F)(F)F)c4)cc3)cc(C3(C(=O)NCCN4CCOCC4)CC3)nc21 [Example 1.8, 1-(3-Amino-1-methyl-4-{4-[3-(3-trifluoromethyl-phenyl)-ureido]-phenyl}-1H-pyrazolo[3,4-b]pyridin-6-yl)-cyclopropanecarboxylic acid (2-morpholin-4-yl-ethyl)-amide] | 100 to 1000 | 1000 to 10000 | 15 | ≤ 100
5 | CN(C)CCNC(=O)C1(c2cc(-c3ccc(NC(=O)Nc4cccc(C(F)(F)F)c4)cc3)c3c(N)nn(C)c3n2)CC1 [Example 1.9, 1-(3-Amino-1-methyl-4-{4-[3-(3-trifluoromethyl-phenyl)-ureido]-phenyl}-1H-pyrazolo[3,4-b]pyridin-6-yl)-cyclopropanecarboxylic acid (2-dimethylamino-ethyl)-amide] | ≤ 100 | 100 to 1000 | 10 | 100 to 1000
6 | CN(C)C(=O)C1(c2cc(-c3ccc(NC(=O)Nc4cccc(C(F)(F)F)c4)cc3)c3c(N)nn(C)c3n2)CC1 [Example 1.10, 1-(3-Amino-1-methyl-4-{4-[3-(3-trifluoromethyl-phenyl)-ureido]-phenyl}-1H-pyrazolo[3,4-b]pyridin-6-yl)-cyclopropanecarboxylic acid dimethylamide] | ≤ 100 | 1000 to 10000 | 12 | ≤ 100
7 | Cn1nc(N)c2c(-c3ccc(NC(=O)Nc4cccc(C(F)(F)F)c4)cc3)cc(C3(C(=O)NC4CC4)CC3)nc21 [Example 1.12, 1-(3-Amino-1-methyl-4-{4-[3-(3-trifluoromethyl-phenyl)-ureido]-phenyl}-1H-pyrazolo[3,4-b]pyridin-6-yl)-cyclopropanecarboxylic acid cyclopropylamide] | ≤ 100 | 1000 to 10000 | >100 | ≤ 100
8 | Cn1nc(N)c2c(-c3ccc(NC(=O)Nc4cccc(C(F)(F)F)c4)cc3)cc(C3(C(=O)N4CCCC4)CC3)nc21 [Example 1.13, 1-(4-{3-Amino-1-methyl-6-[1-(pyrrolidine-1-carbonyl)-cyclopropyl]-1H-pyrazolo[3,4-b]pyridin-4-yl}-phenyl)-3-(3-trifluoromethyl-phenyl)-urea] | ≤ 100 | 1000 to 10000 | >100 | ≤ 100
9 | CN(C)C(=O)C[C@@H]1C[C@H](c2cc(-c3ccc(NC(=O)Nc4cccc(C(F)(F)F)c4)cc3)c3c(N)nn(C)c3n2)C1(C)C [Example 8.4, 2-[3-(3-Amino-1-methyl-4-{4-[3-(3-trifluoromethyl-phenyl)-ureido]-phenyl}-1H-pyrazolo[3,4-b]pyridin-6-yl)-2,2-dimethyl-cyclobutyl]-N,N-dimethyl-acetamide] | ≤ 100 | 1000 to 10000 | 19 | 

More lines, now with the values ahead:

Row | IC50 (Tie2 [1]) [nM] | IC50 (human c-kit) [nM] | Selectivity vs. cKit (human c-kit) | IC50 (Tie2 [2]) [nM] | Structure (SMILES)
10 | ≤ 100 | 1000 to 10000 | >100 | 100 to 1000 | CCNC(=O)C1(c2cc(-c3ccc(NC(=O)Nc4cccc(C(F)(F)F)c4)cc3)c3c(N)nn(C)c3n2)CC1 [Example 1.5, 1-(3-Amino-1-methyl-4-{4-[3-(3-trifluoromethyl-phenyl)-ureido]-phenyl}-1H-pyrazolo[3,4-b]pyridin-6-yl)-cyclopropanecarboxylic acid ethylamide]
11 | ≤ 100 | 1000 to 10000 | >100 | ≤ 100 | CC(C)NC(=O)C1(c2cc(-c3ccc(NC(=O)Nc4cccc(C(F)(F)F)c4)cc3)c3c(N)nn(C)c3n2)CC1 [Example 1.6, 1-(3-Amino-1-methyl-4-{4-[3-(3-trifluoromethyl-phenyl)-ureido]-phenyl}-1H-pyrazolo[3,4-b]pyridin-6-yl)-cyclopropanecarboxylic acid isopropyl-amide]
12 | 100 to 1000 | 1000 to 10000 | 7 | 100 to 1000 | Cn1nc(N)c2c(-c3ccc(NC(=O)Nc4cccc(C(F)(F)F)c4)cc3)cc(C3(C(=O)Nc4ccccc4)CC3)nc21 [Example 1.7, 1-(3-Amino-1-methyl-4-{4-[3-(3-trifluoromethyl-phenyl)-ureido]-phenyl}-1H-pyrazolo[3,4-b]pyridin-6-yl)-cyclopropanecarboxylic acid phenylamide]
13 | ≤ 100 | 1000 to 10000 | 24 | ≤ 100 | CCN(CC)C(=O)C1(c2cc(-c3ccc(NC(=O)Nc4cccc(C(F)(F)F)c4)cc3)c3c(N)nn(C)c3n2)CC1 [Example 1.11, 1-(3-Amino-1-methyl-4-{4-[3-(3-trifluoromethyl-phenyl)-ureido]-phenyl}-1H-pyrazolo[3,4-b]pyridin-6-yl)-cyclopropanecarboxylic acid diethylamide]
14 | ≤ 100 | 100 to 1000 | 11 | 100 to 1000 | Cn1nc(N)c2c(-c3ccc(NC(=O)Nc4cccc(C(F)(F)F)c4)cc3)cc(C3(C(=O)NCCO)CC3)nc21 [Example 1.14, 1-(3-Amino-1-methyl-4-{4-[3-(3-trifluoromethyl-phenyl)-ureido]-phenyl}-1H-pyrazolo[3,4-b]pyridin-6-yl)-cyclopropanecarboxylic acid (2-hydroxy-ethyl)-amide]
